Experimental findings from US20240139125A1 (INDUSTRIAL COOPERATION FOUNDATION JEONBUK NATIONAL …, priority 2020, published 2024) are described below.

Structures are written as SMILES. “Also recorded” adds a separate entry of the source.

Assay [1] deals with tumors derived from MDA-MB-231 cells. Briefly: Xenograft in nude mice. Format: in vivo. To be noted: MDA-MB-231 xenograft, 1 mg/kg BIA, 5 days a week, 25 days. The protocol: FIG. 67C and FIG. 67D show the volume and weight of tumors derived from MDA-MB-231 cells injected into a nude mouse treated with a vehicle or 1 mg/kg BIA. (n=5 mice for each group). Data were expressed as mean±SD. ***p<0.001, ****p<0.0001, followed by binary ANOVA, followed by Bonferroni's post hoc test (C) or two-tailed unpaired t-test (B).
Mice purchased 20-25 g of BALBc/Nude and conducted experiments after 1 week of preliminary breeding to adapt to the laboratory environment. This experiment was approved by the Animal Experiment Ethics Committee of Chonbuk National University (CBNU 201 5-064, CBNU 2016-56) and was carried out according to standard work instructions, and the conditions in the breeding room were kept constant temperature and relative humidity, a 12-hour contrast cycle, and water and feed were freely consumed. Experimental animals are transplanted subcutaneously with 5×10^6 cells per mouse using HT1080 cell line and MDA-MB-231 cell line, and after 7-10 days, mice forming tumor sizes of 100 mm^3 are randomly divided into control and experimental groups. The control group is injected with saline (including 10% DMSO) and the experimental group is injected with 1 mg/kg (10% DMSO) into the abdomen. The drug is given 5 days a week, and repeated for 4 weeks. […] The tumor size was measured with a caliper and calculated using the following formula: […]

Assay [2] has as its system HT1080, MCF7, MDA-MB-231 and SKBR3 cell lines. Briefly: Cell proliferation and viability of cell line panel with BIA. Format: cell-based. To be noted: 5 μM BIA.
The test system of assay [3] is HT1080. The assay is described as follows: Cell proliferation/viability with BIA, IC50 after 3 days. To be noted: Homo sapiens, HT-1080, 72 h; HT1080, treatment for 3 days. Format: cell-based.
Assay [4] concerns SKBR3. The assay is described as above. Format: cell-based. To be noted: Homo sapiens, SK-BR-3, 72 h; SKBR3 cells, treatment for 3 days.
For assay [5], the system named is HT1080 and MDA-MB-231 cells. The assay is described as follows: Cell invasion assay. Format: cell-based. The protocol:
FIG. 65B is an image of an invasive cell in HT1080 and MDA-MB-231 cells treated with 2.0 μM BIA. The graph on the right quantifies invading cells from BIA-treated cells normalized to control cells (n=3 independent experiments). Data were expressed as mean±SD. **p<0.01, ***p<0.001, two-tailed unpaired t-test. The scale bar represents […].
Cells were moved through the polyethylene terephthalate membrane (BD Biosciences) of the insert for 12 hours, and then fixed, crystal violet staining was performed to measure the degree of invasion.
Cell invasion experiments were performed according to the method of the Invasion Assay Kit (corning, 3458). Put a cell culture insert into the 24-well cell culture plate, DMEM medium with 10% FBS added outside the insert , and no FBS added inside the insert. 2.0 μM BIA was added to HT1080 and MDA-MB-231 and incubated at 37° C. for 12˜24 hours. Removed the medium in the 24-well culture plate and the medium inside the insert Then, a cotton swab was used to remove the remaining cells in the insert. After fixing the insert in 4% formaldehyde solution, stain the cells that penetrate the bottom of the insert with crystal violet solution, wash it with tertiary distilled water, and then at room temperature Dried and dried inserts were observed under a microscope.

Assay [6] relates to human breast cancer cells labeled with DiI dye. The assay is described as follows: Zebrafish tumor model. To be noted: 2 uM BIA, third day after transplantation. Format: in vivo.
For assay [7], the system named is HT1080, PANC-1, Capan-1 and MIA PaCa-2. Briefly: Cell viability (crystal violet), BIA versus mTOR inhibitors. To be noted: 10 μM. Format: cell-based.

On to `Nc1ccccc1C(=O)/C=C/c1cccc([N+](=O)[O-])c1` [BIA, 2E-1-2-Aminophenyl-3-3-nitrophenyl-2-propen-1-one], for which the tumor growth entry in assay [1] is given as “significantly impaired”. In assay [2], the “proliferation and cell viability of all cell lines” value is “inhibited; also recorded: suppressed”. The IC50 in assay [3] is 1700 ± 100 nM; in assay [4], 2400 ± 400 nM. Also, the cell invasion result in assay [5] (HT1080 fibrosarcoma cells, 12 hours) is “very pronounced cell invasion inhibition”; in assay [5] (MDA-MB-231 and HT1080 cells, 2.0 μM BIA), “reduced”. For the same compound, the “movement of tumor cells away from the primary site” value in assay [6] is listed as “remained at the injection site”. Besides, the “cell viability compared to OSI-027 and Voxtalisib and other mTOR inhibitors” value in assay [7] is given as “significantly reduced”.

As usually defined, the IC50 is the concentration at which inhibition is half-maximal. A lower IC50 goes with higher potency.
